21 compounds from ChEMBL document CHEMBL5260792, “Benzophenone: a ubiquitous scaffold in medicinal chemistry” (Medchemcomm, 2018) can be followed below.

Data set [1] concerns MCF7. The data set is described as follows: Antiproliferative activity against human MCF7 cells. In kind it is functional, cell-based.
The nature of data set [2]: Anti-inflammatory activity in human PBMC cells assessed as inhibition of LPS-induced TNF-alpha production. In kind it is functional, cell-based.
A short description of data set [3]: Anti-inflammatory activity in human PBMC cells assessed as inhibition of LPS-induced […] production. It is filed as functional, cell-based.
Data set [4] has as its system Human immunodeficiency virus 1. The experiment in a line: Antiviral activity against HIV-1 assessed as reduction in virus-induced cytopathic effect. In kind it is functional, organism-based. For orientation: Damage to the host cells serves as the signal in cytopathic effect assays.
The test system of data set [5] is Human immunodeficiency virus 1. The experiment in a line: Antiviral activity against HIV-1 harboring K103N/P225H double mutant. In kind it is functional, organism-based.
Data set [6] relates to Human immunodeficiency virus 1. The experiment in a line: Antiviral activity against HIV-1 V106I mutant. It is filed as functional, organism-based.
In data set [7] the test system is Human immunodeficiency virus 1. The data set is described as follows: Antiviral activity against HIV-1 E138K mutant. In kind it is functional, organism-based.
Data set [8] concerns Human immunodeficiency virus 1. The data set is described as follows: Antiviral activity against HIV-1 Y188C mutant. It is filed as functional, organism-based.
For data set [9], the system named is Human immunodeficiency virus 1. The experiment in a line: Antiviral activity against HIV-1 K101E mutant. It is filed as functional, organism-based.
For data set [10], the system named is Human immunodeficiency virus 1. The data set is described as follows: Antiviral activity against HIV-1 P236L mutant. In kind it is functional, organism-based.
The subject of data set [11] is Human immunodeficiency virus 1. The experiment in a line: Antiviral activity against HIV-1 harboring K103N/Y181C double mutant. In kind it is functional, organism-based.
Data set [12] concerns Human immunodeficiency virus 1. The experiment in a line: Antiviral activity against HIV-1 harboring V108I/Y181C double mutant. It is filed as functional, organism-based.
Data set [13] deals with Human immunodeficiency virus 1. The data set is described as follows: Antiviral activity against HIV-1 P225H mutant. It is filed as functional, organism-based.
Data set [14] relates to Human immunodeficiency virus 1. The data set is described as follows: Antiviral activity against HIV-1 V108I mutant. In kind it is functional, organism-based.
In data set [15] the test system is Human immunodeficiency virus 1. The data set is described as follows: Antiviral activity against HIV-1 harboring K103N/L100I double mutant. It is filed as functional, organism-based.
Data set [16] relates to Human immunodeficiency virus 1. The experiment in a line: Antiviral activity against HIV-1 Y181C mutant. In kind it is functional, organism-based.
Data set [17] has as its system Human immunodeficiency virus 1. The experiment in a line: Antiviral activity against HIV-1 harboring K103N/V108I double mutant. In kind it is functional, organism-based.
Data set [18] has as its system Human immunodeficiency virus 1. The experiment in a line: Antiviral activity against HIV-1 G190A mutant. It is filed as functional, organism-based.
For data set [19], the system named is Human immunodeficiency virus 1. The experiment in a line: Antiviral activity against HIV-1 L100I mutant. It is filed as functional, organism-based.
Data set [20] relates to Human immunodeficiency virus 1. The experiment in a line: Antiviral activity against HIV-1 K103N mutant. In kind it is functional, organism-based.
In data set [21] the test system is Ehrlich. The data set is described as follows: Antiproliferative activity against mouse EAC cell expressing VEGF-A by MTT assay. In kind it is functional, cell-based. On the technique in general: Formazan colour is commonly taken as a measure of viable cells.
The nature of data set [22]: Antiproliferative activity against mouse DLA cell expressing VEGF-A by MTT assay. In kind it is functional, cell-based.
The subject of data set [23] is Rattus norvegicus. The data set is described as follows: Anti-hyperlipidemic activity in rat assessed as reduction in total cholesterol level at 15 mg/kg, po measured after 18 hrs. It is filed as functional. Also noted: scale not given: the % may be the effect or the level left.
The test system of data set [24] is Rattus norvegicus. The experiment in a line: Anti-hyperlipidemic activity in rat assessed as reduction in triglyceride level at 15 mg/kg, po measured after 18 hrs. It is filed as functional. Also noted: scale not given: the % may be the effect or the level left.
Data set [25] concerns Plasmodium falciparum. The experiment in a line: Antiplasmodial activity against Plasmodium falciparum assessed as reduction in parasite growth. It is filed as functional, organism-based.
Data set [26] has as its system Plasmodium falciparum. The data set is described as follows: In vivo antiplasmodial activity against Plasmodium falciparum infected in mouse model. It is filed as functional.
The nature of data set [27]: Inhibition of FTase (unknown origin) by Perkin elmer analysis. Details: species or system Homo sapiens.
Data set [28] is described as follows: Cytotoxicity against human HUVEC cells assessed as inhibition of cell growth. It is filed as toxicity, cell-based.
The target in data set [29] is Mitogen-activated protein kinase 14 (Homo sapiens, UniProt Q16539). The experiment in a line: Inhibition of P38alphaMAPK (unknown origin).
For data set [30], the target named is T1, Glutathione S-transferase A1 (Homo sapiens, UniProt P08263).
T1 sequence (P08263 whole entry): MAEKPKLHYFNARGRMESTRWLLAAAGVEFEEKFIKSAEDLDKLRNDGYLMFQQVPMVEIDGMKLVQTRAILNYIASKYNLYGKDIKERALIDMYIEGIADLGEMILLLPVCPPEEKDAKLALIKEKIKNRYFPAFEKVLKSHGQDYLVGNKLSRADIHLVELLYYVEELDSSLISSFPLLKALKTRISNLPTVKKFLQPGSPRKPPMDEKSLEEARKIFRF
The data set is described as follows: Inhibition of recombinant human GSTA1-1.

Data set [31] deals with K562. The experiment in a line: Antiproliferative activity against human K562 cells assessed as reduction in cell viability by MTT assay. In kind it is functional, cell-based.
For data set [32], the system named is CCRF-CEM. The data set is described as follows: Antiproliferative activity against human CEM cells assessed as reduction in cell viability by MTT assay. In kind it is functional, cell-based.
The subject of data set [33] is Human immunodeficiency virus 1. The experiment in a line: Antiviral activity against HIV-1. In kind it is functional, organism-based.
The subject of data set [34] is Leishmania. The data set is described as follows: Antileishmanial activity against Leishmania assessed as reduction in parasite growth. It is filed as functional, organism-based.

Values after ≈ are worked out from the molar mass of the structure shown.

Chain of Mitogen-activated protein kinase 14 (Q16539 whole entry): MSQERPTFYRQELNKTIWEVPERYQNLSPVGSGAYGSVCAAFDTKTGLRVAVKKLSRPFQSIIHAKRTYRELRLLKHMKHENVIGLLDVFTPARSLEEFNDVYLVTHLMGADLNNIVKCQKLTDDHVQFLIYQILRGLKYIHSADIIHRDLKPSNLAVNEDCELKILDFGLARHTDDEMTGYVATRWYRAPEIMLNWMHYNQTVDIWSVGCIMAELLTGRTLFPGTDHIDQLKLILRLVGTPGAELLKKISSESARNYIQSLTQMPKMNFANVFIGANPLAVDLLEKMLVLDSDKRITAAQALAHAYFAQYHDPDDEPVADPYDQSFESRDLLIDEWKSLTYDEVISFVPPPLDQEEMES

As usually defined, the IC50 is the concentration that inhibits the measured activity by half. As to `Cc1cc(C(=O)c2cccc(Br)c2)ccc1OCC(=O)NNC(=O)C1CN(Cc2ccccc2)CCO1` (centres undefined), the IC50 in [1] was 7100 nM.
`Cc1cc(F)ccc1Nc1ccc(C(=O)c2ccccc2C)c(Cl)c1`: the IC50 came out at 4 nM in data set [2] and 14 nM in [3] (Homo sapiens, PBMC).
As to `Nc1ccccc1Nc1ccc(C(=O)c2ccccc2)cc1`, the figures for the IC50 in data set [2] and in data set [3] were 159 nM and 226 nM, respectively.
Regarding `Cc1cc(OCCCS(N)(=O)=O)ccc1NC(=O)COc1ccc(Cl)cc1C(=O)c1cc(F)cc(C(F)(F)F)c1`, the half-maximal inhibitory concentration (IC50) in data set [4] was < 2 nM; in [5] it was < 10 nM; in data set [6] it was < 10 nM; in data set [7] it was < 10 nM; in [8] it was < 10 nM; in data set [9] it was < 10 nM. In addition, the IC50 in data set [10], in [11], in [12], in data set [13], in data set [14] and in [15] was < 10 nM each time. Further, the IC50 in data set [16], in [17], in data set [18], in data set [19] and in [20] was < 10 nM in each case.
Turning to `COc1ccc(-c2csc(NC(=O)COc3ccc(C(=O)c4ccc(F)cc4C)cc3C)n2)cc1`, the IC50 in data set [21] and in data set [22] was 5000 nM each time.
`O=C(c1ccccc1)c1cccc(NC(=O)c2ccc(-c3cccc(O)c3)o2)c1`: the Activity in data set [23] is listed as 88%; in [24] it was 84%.
On to `Cc1cc(S(N)(=O)=O)ccc1NC(=O)COc1ccc(Cl)cc1C(=O)c1cccc(C#N)c1`, for which the IC50 in data set [4] was < 2 nM; in data set [5] it was < 10 nM; in data set [6], < 10 nM; in data set [7] it was < 10 nM; in data set [8] it was < 10 nM; in [9], < 10 nM. In addition, the IC50 in data set [10], in data set [11], in data set [12], in [13], in data set [14] and in [15] was < 10 nM each time. Moreover, the IC50 in data set [16], in [17], in data set [18], in data set [19] and in data set [20] was < 10 nM each time.
A word on the ED50: it is the dose that gives a 50% effect, or the effect in half of the subjects. Regarding `CN(C)CCN(C)C(C(=O)Nc1ccc(NC(=O)/C=C/c2ccc(-c3ccc([N+](=O)[O-])cc3)o2)cc1C(=O)c1ccccc1)c1ccccc1` (centres undefined), the values for the IC50 in data set [25] and in data set [27] were 32 nM and 21 nM, respectively. The compound also displayed an ED50 in [26] of 16 mg/kg.
`CC(C)(C)c1[nH]cnc1/C=c1\[nH]c(=O)/c(=C/c2ccccc2)[nH]c1=O` [PLINABULIN]: the IC50 in [28] is 10 nM.
`COc1ccc(C#CC(C)(C)N)cc1C(=O)c1ccc(Nc2ccc(F)cc2F)cc1` returned an IC50 in data set [29] of 14 nM.
`O=C(c1ccccc1O)c1cc(Br)ccc1O`: the IC50 in data set [30] stood at 180 nM.
As to `COc1ccc(C(=O)c2ccc(OCC(=O)N3CCC(CCCC4CCN(C(=S)c5ccc(Cl)cc5)CC4)CC3)cc2)c(OC)c1`, the 50% inhibitory concentration (IC50) in data set [31] and in data set [32] was 1600 nM each time.
As for `COc1ccc(C(=O)c2ccc(OCC(=O)N3CCC(CCCC4CCN(C(=O)c5ccc(Cl)cc5)CC4)CC3)cc2)c(OC)c1`, the IC50 in data set [31] and in data set [32] was 1600 nM in each case.
In general, EC50 refers to the concentration giving half of the maximal effect. `Cc1cc(C)cc(C(=O)c2cc(Cl)ccc2OC(C)C(=O)Nc2ccc(S(N)(=O)=O)cc2)c1` (centres undefined) yielded a 50% effective concentration (EC50) in data set [33] of 2.9 nM.
In the case of `Cc1ccccc1C(=O)c1ccc(Nc2ccccc2N)cc1Cl`, the IC50 worked out at 4 nM in data set [2] and 14 nM in data set [3] (Homo sapiens, PBMC).
For `Cc1cc(S(N)(=O)=O)ccc1NC(=O)COc1ccc(Cl)cc1C(=O)c1cc(F)cc(C(F)(F)F)c1`, the IC50 in [4] was < 2 nM; in data set [5], < 10 nM; in data set [6] it was < 10 nM; in data set [7], < 10 nM; in [8] it was < 10 nM; in data set [9] it was < 10 nM. Also, the IC50 in data set [10], in data set [11], in data set [12], in [13], in data set [14] and in [15] was < 10 nM in each case. Besides, the IC50 in data set [16], in data set [17], in data set [18], in [19] and in data set [20] was < 10 nM each time.
In the case of `O=C(COc1ccc(C(=O)c2ccccc2)cc1)c1ccc(Cl)c(Cl)c1`, the IC50 in data set [34] turned out to be 1.19 µg/mL (≈ 3.09 µM).
In data set [33], `Cc1cccc(C(=O)c2cc(Cl)ccc2OCC(=O)Nc2ccc([N+](=O)[O-])cc2C)c1` came in with an EC50 of 4.2 nM.
Consider `Cc1ccccc1C(=O)c1ccc(Nc2ccc(Br)cc2N)cc1Cl`, for which the IC50 in data set [2] came out at 4 nM; in data set [3] (Homo sapiens, PBMC), 14 nM.
In the case of `Cc1cccc(C(=O)c2ccc(OCC(=O)NNC(=O)C3CN(Cc4ccccc4)CCO3)c(C)c2)c1` (centres undefined), in [1], the midpoint of inhibition, the IC50, lay at 9300 nM.
For the compound `Cc1cc(C(=O)NC2CC2)ccc1-c1ccc(C(=O)c2cccc(CCC(O)CO)c2)cc1` (centres undefined), the IC50 in data set [29] was determined as 27 nM.
